Common to all, as to format: cell-based
The target in assay [1] is T1, recombinant rat GluN1/GluN2A (Rattus norvegicus, UniProt P35439+Q00959).
T1 construct: expressed in transfected cells; host or cells: Xenopus laevis oocytes injected with cRNA (GluN1:GluN2 ratio 1:2)
The assay is described as follows: Two-electrode voltage-clamp recordings in Xenopus laevis oocytes, GluN2A. As to conditions: oocytes, 100 μM glutamate and 30 μM glycine. On the procedure:
(§1) All target compounds were evaluated for activity by the Traynelis laboratory at Emory University using two-electrode voltage-clamp recordings performed in Xenopus laevis oocytes expressing recombinant GluN2A-D subunits (Table 1). […] Two ester compounds 997-65 and 997-66 also performed no inhibition at GluN2A to GluN2D receptors. […] Consequently, for the compounds that Acker et al. already published, it was necessary to increase the concentration to 100 μM when collecting data for a concentration effect curve. […] Therefore, under this condition, we can only conclude that compound 997-67 remained potent at GluN2C/D-containing receptors, but its selectivity over GluN2A- and GluN2B-containing receptors could not be compared to 997-57. […] Finally, replacing the carboxylic acid to the bio-isostere amide yielded compounds 997-96 and 997-115, which dropped the potency 2- to 4-fold in comparison to their corresponding acids 997-74 and 997-114.
(§2) Two-electrode voltage-clamp recordings were performed in Xenopus laevis oocytes that were injected with mRNA to express recombinant rat GluN1/GluN2A, GluN1/GluN2B, GluN1/GluN2C, and GluN1/GluN2D. The recordings using unfertilized oocytes from Xenopus laevis were permitted by Emory University Institutional Animal Care and Use Committee (IACUC). An automatic injector (Nanoject II, Drummond Scientific) was used for cRNA injection using the pipettes filled with mineral oil. The cRNA that transcribed in vitro via the mMessage Machine kit (Ambion) was diluted with nuclease-free water, and then injected at GluN1/GluN2 with a ratio of 1:2. The oocytes were stored in Barth's solution that contained 88 mM NaCl, 5.0 mM Tris-HCl, 2.4 mM NaHCO3, 1.0 mM KCl, 0.84 mM MgSO4, 0.41 mM CaCl2, 0.33 mM Ca(NO3)2, 0.1 mg/ml gentamycin sulfate, 1.0 U/ml penicillin, and 1 μg/ml streptomycin at a pH of 7.4 and temperatures of 15-17° C. for two to five days before the two-electrode voltage-clamp recordings. When recording, the oocytes were placed in a perfusion chamber and continually washed with the recording solution comprised of 90 mM NaCl, 1.0 mM KCl, 0.50 mM BaCl2, 0.005 mM EDTA, and 10 mM HEPES at a pH of 7.4 and a temperature of 23° C. Glass electrodes with a tip resistance of 0.5 to 2.5 MΩ were obtained from thin-walled glass capillary tubes. Voltage electrodes and current electrodes were filled with 0.3 M and 3.0 M KCl, respectively. The recordings were executed with the oocytes membrane potential holding at −40 m V by an OC-725 amplifier (Warner Instrument Co). All compounds were dissolved in dimethyl sulfoxide (DMSO) as 20 mM stock solutions and future diluted to reach the desired concentration (0.05-0.5% (vol/vol) DMSO) in recording solution comprised of 30 μM glycine and 100 μM glutamate. Each compound was recorded 3-7 times in the least 4 oocytes from at least 2 different Xenopus laevis.
(§3) To evaluate the inhibition of compounds, the concentration-response curve was fitted with the average two-electrode voltage-clamp recording results with the equation
(§4) [formula] • where IC50 is the concentration of compounds that inhibit half maximal of the current response and N is the Hill slope.

The target of assay [2] is T2, recombinant rat GluN1/GluN2B (Rattus norvegicus, UniProt P35439+Q00960).
T2 construct: expressed in transfected cells; host or cells: Xenopus laevis oocytes injected with cRNA (GluN1:GluN2 ratio 1:2)
Briefly: Two-electrode voltage-clamp recordings in Xenopus laevis oocytes, GluN2B. The following applies: oocytes, 100 μM glutamate and 30 μM glycine. On the procedure: as §1, §2, §3, §4

Assay [3] has as its target T3, recombinant rat GluN1/GluN2D (Rattus norvegicus, UniProt Q62645).
T3 construct: expressed in transfected cells; host or cells: Xenopus laevis oocytes injected with cRNA (GluN1:GluN2 ratio 1:2)
The assay is described as follows: Two-electrode voltage-clamp recordings in Xenopus laevis oocytes, GluN2D. As to conditions: for 2A IC50 / 2D IC50 / 2B IC50 / 2D IC50: ratio of IC50 values. On the procedure: as §1, §2, §3, §4
(In general: Two-electrode voltage clamp holds a large cell at a set potential and records current.)

The target of assay [4] is T4, recombinant rat GluN1/GluN2C (Rattus norvegicus, UniProt P35439+Q00961).
T4 construct: expressed in transfected cells; host or cells: Xenopus laevis oocytes injected with cRNA (GluN1:GluN2 ratio 1:2)
The assay is described as follows: Two-electrode voltage-clamp recordings in Xenopus laevis oocytes, GluN2C. The following applies: oocytes, 100 μM glutamate and 30 μM glycine; read-out: GluN2C IC50. On the procedure: as §1, §2, §3, §4

For assay [5], the target named is T5, recombinant rat GluN1/GluN2D (Rattus norvegicus, UniProt P35439+Q62645).
T5 construct: expressed in transfected cells; host or cells: Xenopus laevis oocytes injected with cRNA (GluN1:GluN2 ratio 1:2)
The assay is described as follows: Two-electrode voltage-clamp recordings in Xenopus laevis oocytes, GluN2D. On the procedure:
as §1, §2, §3, §4

Setting [6] is: oocytes, 100 μM glutamate and 30 μM glycine, read-out: GluN2D IC50.
Setting [7] is: read-out: IC50 at GluN2D-containing receptors.

The values that follow come from patent US12391664B2, “GluN2C/D subunit selective antagonists of the N-methyl-D-aspartate receptor” (Emory University, priority 2018, dated 2025).

Where two headings read alike, the source gives them in different places.

For orientation: IC50 means the concentration needed to halve the response being measured.

T3 sequence (Q62645 28-1323, other chains not shown): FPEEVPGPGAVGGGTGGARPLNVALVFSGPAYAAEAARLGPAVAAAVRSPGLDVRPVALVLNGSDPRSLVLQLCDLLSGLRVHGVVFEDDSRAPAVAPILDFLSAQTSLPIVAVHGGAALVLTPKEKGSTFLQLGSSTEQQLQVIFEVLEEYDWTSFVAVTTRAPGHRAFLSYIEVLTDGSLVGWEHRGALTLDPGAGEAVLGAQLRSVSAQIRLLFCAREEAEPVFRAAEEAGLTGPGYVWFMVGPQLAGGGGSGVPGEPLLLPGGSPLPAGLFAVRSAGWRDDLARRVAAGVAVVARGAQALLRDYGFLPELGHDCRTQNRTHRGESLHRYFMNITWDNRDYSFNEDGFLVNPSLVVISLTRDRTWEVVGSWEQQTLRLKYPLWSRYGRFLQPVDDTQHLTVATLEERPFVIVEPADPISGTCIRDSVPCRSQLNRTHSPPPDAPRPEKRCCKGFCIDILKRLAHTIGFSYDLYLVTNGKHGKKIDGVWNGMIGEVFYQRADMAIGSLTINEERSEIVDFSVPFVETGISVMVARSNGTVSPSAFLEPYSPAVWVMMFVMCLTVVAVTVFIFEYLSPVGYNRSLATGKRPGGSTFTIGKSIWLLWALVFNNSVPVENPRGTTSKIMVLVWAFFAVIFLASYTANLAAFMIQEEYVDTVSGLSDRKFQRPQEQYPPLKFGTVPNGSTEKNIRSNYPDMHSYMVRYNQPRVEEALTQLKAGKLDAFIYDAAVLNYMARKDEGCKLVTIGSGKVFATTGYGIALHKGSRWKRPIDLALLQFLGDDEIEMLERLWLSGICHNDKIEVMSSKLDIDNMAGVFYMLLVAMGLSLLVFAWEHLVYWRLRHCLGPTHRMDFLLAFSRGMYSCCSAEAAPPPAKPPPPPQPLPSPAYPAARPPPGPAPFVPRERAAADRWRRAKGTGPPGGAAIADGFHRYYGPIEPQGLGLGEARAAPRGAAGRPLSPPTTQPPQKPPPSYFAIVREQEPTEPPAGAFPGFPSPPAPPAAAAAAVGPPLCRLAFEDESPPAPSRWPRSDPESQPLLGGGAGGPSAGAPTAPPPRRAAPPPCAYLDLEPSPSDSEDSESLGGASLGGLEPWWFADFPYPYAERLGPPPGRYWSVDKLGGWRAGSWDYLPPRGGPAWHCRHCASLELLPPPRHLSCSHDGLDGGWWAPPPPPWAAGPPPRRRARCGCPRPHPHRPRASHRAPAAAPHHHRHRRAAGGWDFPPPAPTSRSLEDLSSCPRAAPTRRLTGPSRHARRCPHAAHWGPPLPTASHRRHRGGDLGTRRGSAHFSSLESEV
T5 sequence (Q62645 28-1323, other chains not shown): as above
T1 sequence (Q00959 23-1464, other chains not shown): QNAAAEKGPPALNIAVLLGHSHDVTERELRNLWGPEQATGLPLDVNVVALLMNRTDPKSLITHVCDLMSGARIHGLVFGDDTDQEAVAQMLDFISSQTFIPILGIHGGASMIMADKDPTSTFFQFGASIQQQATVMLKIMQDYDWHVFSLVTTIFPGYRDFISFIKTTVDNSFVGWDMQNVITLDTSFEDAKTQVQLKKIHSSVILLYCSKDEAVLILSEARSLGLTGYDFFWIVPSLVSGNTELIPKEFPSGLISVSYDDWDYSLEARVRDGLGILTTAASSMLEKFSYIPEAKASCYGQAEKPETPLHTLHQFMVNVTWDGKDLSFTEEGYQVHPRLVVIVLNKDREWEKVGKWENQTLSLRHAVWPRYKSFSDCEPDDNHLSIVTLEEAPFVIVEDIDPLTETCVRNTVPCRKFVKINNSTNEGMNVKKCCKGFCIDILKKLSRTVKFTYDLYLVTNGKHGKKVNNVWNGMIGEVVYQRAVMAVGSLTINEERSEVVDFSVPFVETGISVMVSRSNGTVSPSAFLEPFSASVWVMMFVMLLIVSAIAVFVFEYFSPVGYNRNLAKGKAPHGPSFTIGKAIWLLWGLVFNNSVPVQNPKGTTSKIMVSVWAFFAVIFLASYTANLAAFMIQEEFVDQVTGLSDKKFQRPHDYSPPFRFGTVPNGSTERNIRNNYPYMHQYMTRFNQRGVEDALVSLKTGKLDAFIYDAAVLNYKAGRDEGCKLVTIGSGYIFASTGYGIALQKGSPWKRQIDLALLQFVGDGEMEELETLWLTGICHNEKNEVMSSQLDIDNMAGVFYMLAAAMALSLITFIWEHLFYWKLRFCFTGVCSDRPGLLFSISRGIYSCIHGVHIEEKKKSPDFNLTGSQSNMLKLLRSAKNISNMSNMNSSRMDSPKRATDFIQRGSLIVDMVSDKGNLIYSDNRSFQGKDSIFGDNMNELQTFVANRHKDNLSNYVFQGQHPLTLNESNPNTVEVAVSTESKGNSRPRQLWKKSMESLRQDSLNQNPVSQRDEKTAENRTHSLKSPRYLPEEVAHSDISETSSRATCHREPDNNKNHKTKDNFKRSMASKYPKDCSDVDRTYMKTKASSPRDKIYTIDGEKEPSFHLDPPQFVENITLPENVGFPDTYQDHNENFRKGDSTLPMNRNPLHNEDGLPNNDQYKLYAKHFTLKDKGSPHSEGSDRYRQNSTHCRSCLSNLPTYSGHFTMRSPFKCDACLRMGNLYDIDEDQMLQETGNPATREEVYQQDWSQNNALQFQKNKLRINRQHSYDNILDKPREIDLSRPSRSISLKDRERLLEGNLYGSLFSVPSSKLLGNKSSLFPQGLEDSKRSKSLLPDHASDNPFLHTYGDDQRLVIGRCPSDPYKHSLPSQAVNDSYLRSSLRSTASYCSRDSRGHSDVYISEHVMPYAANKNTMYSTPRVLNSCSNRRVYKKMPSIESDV
T2 sequence (Q00960 27-1482, other chains not shown): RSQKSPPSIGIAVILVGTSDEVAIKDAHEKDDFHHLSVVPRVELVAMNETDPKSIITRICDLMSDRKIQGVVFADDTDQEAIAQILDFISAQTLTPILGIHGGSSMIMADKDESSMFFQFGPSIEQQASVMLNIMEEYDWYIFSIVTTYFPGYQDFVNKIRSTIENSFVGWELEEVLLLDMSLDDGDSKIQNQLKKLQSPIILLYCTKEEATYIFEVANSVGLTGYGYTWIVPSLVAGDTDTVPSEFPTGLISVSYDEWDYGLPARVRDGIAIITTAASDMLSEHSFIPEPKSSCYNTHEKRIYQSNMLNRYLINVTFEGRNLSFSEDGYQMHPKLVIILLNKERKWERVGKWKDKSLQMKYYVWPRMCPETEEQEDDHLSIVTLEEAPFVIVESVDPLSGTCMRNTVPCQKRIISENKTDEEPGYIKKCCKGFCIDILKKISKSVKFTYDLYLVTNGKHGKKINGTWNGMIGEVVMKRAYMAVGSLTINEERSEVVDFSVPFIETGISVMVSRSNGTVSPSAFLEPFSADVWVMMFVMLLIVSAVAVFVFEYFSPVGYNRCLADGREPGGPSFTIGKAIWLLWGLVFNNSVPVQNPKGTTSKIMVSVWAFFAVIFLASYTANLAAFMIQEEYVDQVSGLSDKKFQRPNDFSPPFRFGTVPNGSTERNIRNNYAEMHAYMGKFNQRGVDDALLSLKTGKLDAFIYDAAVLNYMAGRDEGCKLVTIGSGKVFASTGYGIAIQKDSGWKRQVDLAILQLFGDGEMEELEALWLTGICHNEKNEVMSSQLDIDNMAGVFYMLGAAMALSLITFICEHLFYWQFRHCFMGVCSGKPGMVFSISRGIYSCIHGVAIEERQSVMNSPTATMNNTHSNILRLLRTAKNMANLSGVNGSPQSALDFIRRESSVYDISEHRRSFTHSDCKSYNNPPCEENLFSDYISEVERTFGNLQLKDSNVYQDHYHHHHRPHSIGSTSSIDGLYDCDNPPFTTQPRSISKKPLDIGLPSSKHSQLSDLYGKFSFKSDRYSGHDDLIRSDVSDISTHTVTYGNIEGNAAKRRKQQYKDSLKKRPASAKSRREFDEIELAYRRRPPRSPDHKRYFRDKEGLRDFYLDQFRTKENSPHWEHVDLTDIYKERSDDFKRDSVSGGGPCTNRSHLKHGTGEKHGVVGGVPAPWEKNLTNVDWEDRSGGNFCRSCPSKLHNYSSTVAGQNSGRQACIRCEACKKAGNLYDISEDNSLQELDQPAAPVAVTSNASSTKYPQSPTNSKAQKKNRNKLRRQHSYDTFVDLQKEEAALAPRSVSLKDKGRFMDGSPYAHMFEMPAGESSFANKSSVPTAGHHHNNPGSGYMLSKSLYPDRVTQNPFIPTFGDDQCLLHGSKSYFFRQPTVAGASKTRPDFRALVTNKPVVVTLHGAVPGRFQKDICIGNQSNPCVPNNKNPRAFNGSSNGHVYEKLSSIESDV

Take `O=C(CC(F)(F)C(=O)O)N1N=C(c2c(-c3cccc(F)c3)c3ccccc3[nH]c2=O)CC1c1ccc(Cl)cc1` (stereo not drawn) [997-69, 4-{5-(4-chlorophenyl)-3-[4-(3-fluorophenyl)-2-oxo-1,2-dihydroquinolin-3-yl]-4,5-dihydro-1H-pyrazol-1-yl}-2,2-difluoro-4-oxobutanoic acid]: the IC50 is 28 µM in assay [1] and 48 µM in assay [2]. The “2A IC50 / 2D IC50” value in assay [3] worked out at 56. Also, the “2B IC50 / 2D IC50” value in assay [3] is 96.

As for `O=C(O)CC(F)(F)C(=O)N1N=C(c2c(-c3ccc(Cl)cc3)c3ccccc3[nH]c2=O)CC1c1ccc(Cl)cc1` (stereo not drawn) [997-74, 4-(5-(4-chlorophenyl)-3-(4-(4-chlorophenyl)-2-oxo-1,2-dihydroquinolin-3-yl)-4,5-dihydro-1H-pyrazol-1-yl)-3,3-difluoro-4-oxobutanoic acid], the IC50 in assay [1] worked out at 11 µM. Further, the IC50 in assay [2] came to 6.9 µM. In assay [3], the “selectivity at GluN2D- over GluN2A-containing receptor” value is “approximately 220 fold”, the “2A IC50 / 2D IC50” value was found to be 220 and the “2B IC50 / 2D IC50” value came to 138.

In the case of `Cc1ccc2[nH]c(=O)c(C3=NN(C(=O)C(F)(F)CC(=O)O)C(c4ccc(Cl)cc4)C3)c(-c3ccc(Cl)cc3)c2c1` (stereo not drawn) [997-90, 4-(5-(4-chlorophenyl)-3-(4-(4-chlorophenyl)-6-methyl-2-oxo-1,2-dihydroquinolin-3-yl)-4,5-dihydro-1H-pyrazol-1-yl)-3,3-difluoro-4-oxobutanoic acid], the IC50 in assay [1] turned out to be 3 µM; in assay [2] it was 3 µM; in assay [4], 400 nM; in assay [5] (setting [6]) it was 200 nM.

For the molecule `O=C(O)CCC(=O)N1N=C(c2c(-c3ccc(Cl)cc3)c3ccccc3[nH]c2=S)CC1c1ccc(Cl)cc1` (stereo not drawn) [997-97, 4-(5-(4-chlorophenyl)-3-(4-(4-chlorophenyl)-2-thioxo-1,2-dihydroquinolin-3-yl)-4,5-dihydro-1H-pyrazol-1-yl)-4-oxobutanoic acid], the IC50 in assay [1] is 16 µM; in assay [2], 30 µM; in assay [4], 480 nM; in assay [5] (setting [6]), 350 nM. In addition, the “2A IC50 / 2D IC50” value in assay [3] came out at 46. The “2B IC50 / 2D IC50” value in assay [3] is 86.

In the case of `O=C(O)/C=C(/F)C(=O)N1N=C(c2c(-c3ccc(Cl)cc3)c3ccccc3[nH]c2=O)CC1c1ccc(Cl)cc1` (stereo not drawn) [997-101, (E)-4-(5-(4-chlorophenyl)-3-(4-(4-chlorophenyl)-2-oxo-1,2-dihydroquinolin-3-yl)-4,5-dihydro-1H-pyrazol-1-yl)-3-fluoro-4-oxobut-2-enoic acid], the IC50 in assay [1] was 3 µM; in assay [2] it was 11 µM; in assay [4], 70 nM; in assay [5] (setting [7]) it was 60 nM. Further, the “selectivity at GluN2D- over GluN2A-containing receptor” value in assay [3] is reported as 50 fold. The “2A IC50 / 2D IC50” value in assay [3] is 50. In addition, the “2B IC50 / 2D IC50” value in assay [3] was 183.

Consider `O=C(O)CC(F)(F)C(=O)N1N=C(c2c(-c3ccc(F)cc3)c3cc(F)ccc3[nH]c2=O)CC1c1ccc(Cl)cc1` (stereo not drawn) [997-102, 4-(5-(4-chlorophenyl)-3-(6-fluoro-4-(4-fluorophenyl)-2-oxo-1,2-dihydroquinolin-3-yl)-4,5-dihydro-1H-pyrazol-1-yl)-3,3-difluoro-4-oxobutanoic acid], for which the IC50 was found to be 5.9 µM in assay [1], 7.3 µM in assay [2], 1000 nM in assay [4] and 400 nM in assay [5] (setting [7]).

As for `O=C(O)CC(F)(F)C(=O)N1N=C(c2c(-c3ccc(Cl)cc3)c3ccccc3[nH]c2=O)CC1c1ccc(F)cc1` (stereo not drawn) [997-104, 4-(3-(4-(4-chlorophenyl)-2-oxo-1,2-dihydroquinolin-3-yl)-5-(4-fluorophenyl)-4,5-dihydro-1H-pyrazol-1-yl)-3,3-difluoro-4-oxobutanoic acid], the concentration for half-maximal inhibition (IC50) in assay [1] was found to be 20 µM; in assay [2], 30 µM; in assay [4] it was 1600 nM; in assay [5] (setting [6]) it was 810 nM. In assay [3] (comparator 997-74), the “fold decrease of potency at GluN2D in comparison to 997-74” value came out at 16 fold. Moreover, the “2B IC50 / 2D IC50” value in assay [3] is 37.

As for `O=C(O)CCC(=O)N1N=C(c2c(-c3ccc(Cl)s3)c3ccccc3[nH]c2=O)CC1c1ccc(Cl)cc1` (stereo not drawn) [997-108, 4-(5-(4-chlorophenyl)-3-(4-(5-chlorothiophen-2-yl)-2-oxo-1,2-dihydroquinolin-3-yl)-4,5-dihydro-1H-pyrazol-1-yl)-4-oxobutanoic acid], the IC50 in assay [1] turned out to be 13 µM; in assay [2], 23 µM; in assay [4] it was 670 nM; in assay [5] (setting [6]), 400 nM.

As to `O=C(O)CC(F)(F)C(=O)N1N=C(c2c(-c3ccc(Cl)s3)c3ccccc3[nH]c2=O)CC1c1ccc(Cl)cc1` (stereo not drawn) [997-109, 4-(5-(4-chlorophenyl)-3-(4-(5-chlorothiophen-2-yl)-2-oxo-1,2-dihydroquinolin-3-yl)-4,5-dihydro-1H-pyrazol-1-yl)-3,3-difluoro-4-oxobutanoic acid], the IC50 worked out at 2.6 µM in assay [1], 4 µM in assay [2], 280 nM in assay [4] and 100 nM in assay [5] (setting [7]).

Turning to `O=C(O)CCC(=O)N1N=C(c2c(-c3ccc(Cl)cc3)c3ccccc3[nH]c2=O)CC1c1ccc(Cl)s1` (stereo not drawn) [997-111, 4-(3-(4-(4-chlorophenyl)-2-oxo-1,2-dihydroquinolin-3-yl)-5-(5-chlorothiophen-2-yl)-4,5-dihydro-1H-pyrazol-1-yl)-4-oxobutanoic acid], the IC50 turned out to be 21 µM in assay [1], 34 µM in assay [2], 1300 nM in assay [4] and 800 nM in assay [5] (setting [6]). For the same molecule, the “2B IC50 / 2D IC50” value in assay [3] is listed as 43.

Take `O=C(O)CCC(=O)N1N=C(c2c(-c3ccc(Cl)cc3)c3ccccc3[nH]c2=O)CC1c1ccc(C(F)(F)F)cc1` (stereo not drawn) [997-112, 4-(3-(4-(4-chlorophenyl)-2-oxo-1,2-dihydroquinolin-3-yl)-5-(4-(trifluoromethyl)phenyl)-4,5-dihydro-1H-pyrazol-1-yl)-4-oxobutanoic acid]: the IC50 in assay [1] is 13 µM; in assay [2], 20 µM; in assay [4] it was 350 nM; in assay [5] (setting [6]), 200 nM. Besides, the “2B IC50 / 2D IC50” value in assay [3] was found to be 100.

For `O=C(O)CC(F)(F)C(=O)N1N=C(c2c(-c3ccc(Cl)cc3)c3ccccc3[nH]c2=O)CC1c1ccc(C(F)(F)F)cc1` (stereo not drawn) [997-113, 4-(3-(4-(4-chlorophenyl)-2-oxo-1,2-dihydroquinolin-3-yl)-5-(4-(trifluoromethyl)phenyl)-4,5-dihydro-1H-pyrazol-1-yl)-3,3-difluoro-4-oxobutanoic acid], the 50% inhibitory concentration (IC50) is 2.3 µM in assay [1], 2.9 µM in assay [2], 170 nM in assay [4] and 80 nM in assay [5] (setting [6]). The “2B IC50 / 2D IC50” value in assay [3] is given as 36.

Turning to `O=C(O)CC(F)(F)C(=O)N1N=C(c2ccccc2-c2ccc(F)c(Cl)c2)CC1c1ccc(Cl)cc1` (stereo not drawn) [997-120, 4-(3-(3′-chloro-4′-fluoro-[1,1′-biphenyl]-2-yl)-5-(4-chlorophenyl)-4,5-dihydro-1H-pyrazol-1-yl)-3,3-difluoro-4-oxobutanoic acid], the IC50 in assay [1] was 11 µM; in assay [2], 8.8 µM; in assay [4] it was 5230 nM; in assay [5] (setting [6]), 3360 nM.
